EC50, IC50 and outcome data for 72 compounds are collected here from PubChem BioAssay AID179 (DTP/NCI, 2004).

This assay concerns CEM cells HIV-1 protection, formazan growth assay. The experiment in a line: NCI AIDS Antiviral Assay. The note with it: for IC50: measured here: growth of uninfected CEM cells. In a few lines: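 Category rules: moderately active means at least 50% protection on retest, and confirmed active means 100% protection reproducibly. The underlying data came from a formazan growth assay in HIV-1-infected CEM cells.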

The source made the active and inactive calls.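 The calls were made as follows: active = compounds giving half or more protection of infected cells from virus-caused growth loss, again on retest; inactive = the rest.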 Where only a bound is given, the exact number is not on record here.

As for `O=C1c2ccccc2-c2ccc3c4ccc5c6c(ccc(c7ccc1c2c73)c64)-c1ccccc1C5=O`, the EC50 (commonly the concentration needed to bring the measured effect to its halfway point) was above 200 µM and the half-inhibitory concentration (IC50) – broadly, the concentration that inhibits the measured activity by half – was above 200 µM.
`O=C(O)c1ccccc1-c1c2ccc(=O)c(O)c-2oc2c(O)c(O)ccc12` came in with an EC50 above 25.1 µM and an IC50 of 8.71 µM.
Taken in the same sequence, the figures for `COC(=O)CCn1cnc2c(SC)ncnc21` were above 200 µM and above 200 µM.
The like results for `COc1ccc(C(=C2C(=O)N(c3ccccc3)C(=O)C2=C(C)C)c2ccc(OC)cc2)cc1` were, in that order, above 200 µM and 3.39 µM.
Taken in the same sequence, the figures for `N#Cc1c2c(c(N=[N+]=[N-])n3c1nc1ccccc13)CCCC2` were above 4.68 µM and above 4.68 µM.
In the case of `O=C(O)c1ccccc1C(=O)NC(Cc1cccc(NP(=O)(N2CC2)N2CC2)c1)C(=O)O` (stereo not drawn), the EC50 was 27.5 µM and the IC50 was above 200 µM.
For the compound `CNC(=O)N(C)COC`, the EC50 is above 759 µM and the IC50 was found to be 115 µM.
As for `CCN(CC)C(=O)c1cc(=O)c(C)c2oc3c(C)c(O)c(N)c(C(=O)N(CC)CC)c3nc1-2`, the EC50 was above 200 µM and the IC50 was 110 µM.
Regarding `N#Cc1c(/N=C/c2cc(Cl)cc(Cl)c2O)sc2c1CCC2`, the EC50 was above 200 µM and the IC50 is above 200 µM.
As for `O=c1[nH]c(Nc2ccc(F)c(Cl)c2)nc2nc[nH]c12`, the EC50 was above 200 µM and the concentration for half-maximal inhibition (IC50) was above 200 µM.
Take `Cc1c2ccccc2nc(CSc2ccccc2)[n+]1[O-]`: the EC50 was 9.55 µM and the IC50 amounted to 178 µM.
`CCCCc1ccc(Nc2nc(Cl)c3ccn(C4CC(Oc5ccc(C)cc5)C(COc5ccc(C)cc5)O4)c3n2)cc1` (stereo not drawn): the EC50 is above 200 µM and the IC50 was above 200 µM.
Take `O=C(SC1=NCCN1)c1cccc2ccccc12`: the EC50 is above 200 µM and the half-inhibitory concentration (IC50) stood at 28.8 µM.
As for `CCCCCCCCCCCC[N+]12CC[N+](CCN)(CC1)CC2`, the EC50 is above 251 µM and the half-maximal inhibitory concentration (IC50) came to 56.2 µM.
Taken in the same sequence, the figures for `CC(C)C(O)C(=O)C(F)C(C)C` (stereo not drawn) were above 1410 µM and above 1410 µM.
As for `Nc1c(-c2ccccc2)oc2ccccc2c1=O`, the EC50 is above 200 µM and the IC50 is above 200 µM.
As to `O=P(OC1=CCCCC1)(c1ccccc1)c1ccccc1`, the EC50 was above 200 µM and the IC50 is 81.3 µM.
Taken in the same sequence, the figures for `CCOC(=O)c1c(N2CCCC2)nsc1Nc1ccc(F)cc1` were above 200 µM and 23.4 µM.
Taken in the same sequence, the figures for `O=c1[nH]c2ccc(CC(=S)N3CCCCC3)cc2s1` were above 200 µM and 148 µM.
On to `Cc1cc(O)cc2oc(=O)c3c(O)cc(O)cc3c12`, for which the EC50 was above 479 µM and the IC50 came to 12.6 µM.
Taken in the same sequence, the figures for `CSc1ccc(NC(=O)Nc2cc(C)ccn2)cc1` were above 200 µM and 191 µM.
With `COc1ccc(/C(=N/O)c2ccccc2-c2nc3ccccc3c(=O)n2-c2ccc(S(=O)(=O)Nc3ccccn3)cc2)cc1C`, the EC50 was above 100 µM and the IC50 was found to be 63.1 µM.
As to `O=C1NNC(=O)C2C3C=CC(O3)C12` (stereo not drawn), the EC50 is above 200 µM and the IC50 is above 200 µM.
In the case of `CCOC(=S)NP(=O)(NC(=S)OCC)NC(=S)OCC`, the EC50 is above 200 µM and the half-maximal inhibitory concentration (IC50) is above 200 µM.
`CN(C)c1ccc(/C=C2\Oc3cc(O)ccc3C2=O)cc1`: the EC50 was above 200 µM and the concentration for half-maximal inhibition (IC50) was determined as 45.7 µM.
The like results for `Cc1cc(=O)[nH]c(NNC(C#N)c2ccc(N(C)C)cc2)n1` (stereo not drawn) were, in that order, above 63.1 µM and above 63.1 µM.
In the case of `O=c1c2ccccc2sc2ccccc12`, the EC50 was above 200 µM and the IC50 was above 200 µM.
For `Cn1c(-c2ccccc2)cc(-c2ccsc2)c1-c1ccsc1`, the EC50 is above 200 µM and the IC50 was 158 µM.
As to `C(=Nc1ccc(SSc2ccc(N=Cc3ccccc3)cc2)cc1)c1ccccc1`, the EC50 is above 200 µM and the half-inhibitory concentration (IC50) stood at 33.1 µM.
Taken in the same sequence, the figures for `C[CH2][Sn]([CH2]C)([O]C(=O)c1ccc(F)cc1)[O]C(=O)c1ccc(F)cc1` were above 110 µM and 3.63 µM.
With `Cc1cccc(-c2cccc(COCc3cccc(-c4cccc(CO)n4)n3)n2)n1`, the EC50 is above 100 µM and the concentration for half-maximal inhibition (IC50) stood at 43.7 µM.
For `O=C(C(=O)N1CCc2ccccc21)c1c[nH]c2ccccc12`, the EC50 is above 200 µM and the concentration for half-maximal inhibition (IC50) was above 200 µM.
As for `CC(=O)OC[C@@H]1[C@H]2CC(=O)O[C@H]2C[C@H]1OC(C)=O`, the outcome was inactive.
`c1ccc(-c2nc3nc4ccccc4nc3nc2-c2ccccn2)nc1`: the EC50 is above 53.7 µM and the IC50 is 10.7 µM.
For `COc1ccc(C(OCC2OC(n3ccc(Oc4c(F)c(F)c(F)c(F)c4F)nc3=O)CC2OP(OCCC#N)N(C(C)C)C(C)C)(c2ccccc2)c2ccc(OC)cc2)cc1` (stereo not drawn), the EC50 is above 200 µM and the half-maximal inhibitory concentration (IC50) was determined as 89.1 µM.
Consider `CO[C@@H]1O[C@H](C(=O)c2ccccc2)[C@H]2OC(C)(C)O[C@@H]12`, for which the EC50 is above 200 µM and the concentration for half-maximal inhibition (IC50) was 45.7 µM.
For the compound `N#CC(N=O)C(N)=O` (stereo not drawn), the EC50 is above 200 µM and the IC50 was above 200 µM.
With `CCOC(=O)/C(C#N)=C/c1ccco1`, the EC50 is above 263 µM and the 50% inhibitory concentration (IC50) is above 263 µM.
Take `C/C(=N/NC(=O)c1ccccc1S(N)(=O)=O)C(CN1CCCCC1)C(C1=C(O)C2C=CC=CC2OC1=O)c1ccccc1` (stereo not drawn): the EC50 is above 21.4 µM and the IC50 is above 21.4 µM.
For `C=CCOC(=O)Cn1cc(C)c(=O)[nH]c1=O`, the EC50 was above 200 µM and the half-inhibitory concentration (IC50) is above 200 µM.
Take `N#CC1=C2Oc3ccccc3N2C(c2ccccc2)C(C#N)=C1N` (stereo not drawn): the EC50 was above 200 µM and the IC50 was above 200 µM.
`Cc1ccccc1N1C(=O)/C(=C/c2ccc(N(CCC#N)CCC#N)cc2)N=C1c1cc([N+](=O)[O-])ccc1Cl`: the EC50 was above 9.77 µM and the 50% inhibitory concentration (IC50) was above 9.77 µM.
On to `COc1ccc(C(CC(=O)c2ccc3c(c2)OCO3)C(=O)O)cc1OC` (stereo not drawn), for which the outcome was inactive.
Consider `Cc1cc(S(=O)(=O)Nc2nnc3cnc4ccccc4n23)c(S)cc1Cl`, for which the EC50 was 89.1 µM and the half-maximal inhibitory concentration (IC50) was found to be 339 µM.
The like results for `O=C([O-])c1ccc2c(c1)-c1nc-2nc2[n-]c(nc3nc(nc4[n-]c(n1)c1ccc(C(=O)[O-])cc41)-c1ccc(C(=O)[O-])cc1-3)c1ccc(C(=O)[O-])cc21.[Gd+3].[K+]` were, in that order, above 45.7 µM and above 45.7 µM.
On to `CN(C)c1ccc(/C=C2/SC(=S)NC2=O)cc1`, for which the EC50 is above 38 µM and the IC50 is above 38 µM.
As to `CC(=O)Oc1ccc(C2SCc3nc4ccccc4n32)cc1` (stereo not drawn), the EC50 was above 200 µM and the half-inhibitory concentration (IC50) came to 18.2 µM.
`Cc1ccc2c(c1)P(=O)(O)c1cc(C)ccc1O2`: the EC50 was above 200 µM and the IC50 is above 200 µM.
Regarding `NP(N)(=O)NC(=O)c1ccc(F)cc1`, the EC50 is above 200 µM and the half-maximal inhibitory concentration (IC50) is above 200 µM.
`CC1(C)C2CC(O)C1CCC2=O` (stereo not drawn): the EC50 is above 200 µM and the IC50 was above 200 µM.
On to `O=[N+]([O-])c1cccc(C2=NN(c3ccccc3)C3c4ccccc4OCC23)c1` (stereo not drawn), for which the EC50 was above 7.41 µM and the IC50 is above 7.41 µM.
In the case of `CC(=O)C1=CC=C/C1=N\Nc1ccccc1`, the EC50 was above 200 µM and the IC50 stood at 11 µM.
For `COc1ccc(/C(=C/n2ccnc2)C(O)c2ccc(OC)c(OC)c2)cc1OC` (stereo not drawn), the EC50 was above 126 µM and the IC50 was above 126 µM.
In the case of `C=C1C2CCC3C(CCC4C5(C)CCCC43C3OCCN3C5)(C2)C1OC(C)=O` (stereo not drawn), the result was inactive.
As to `N#CN=CN1CCN(c2ccccn2)CC1`, the EC50 is above 537 µM and the concentration for half-maximal inhibition (IC50) is above 537 µM.
Consider `COc1ccccc1NC(=O)CC(=O)N1N=C(N(c2ccccc2)c2ccccc2)CC1c1ccccc1` (stereo not drawn), for which the result was inactive and the half-maximal inhibitory concentration (IC50) is above 100 µM.
As to `CC(=O)OC1CC2C(C)(C)C(=O)C=C[C@]2(C)C2CCC3(C)C(c4ccoc4)[C@@H](O)[C@H]4O[C@]43[C@]12C` (stereo partly drawn), the EC50 was above 57.5 µM and the IC50 turned out to be 6.17 µM.
For `O=C1c2cc3c(cc2CC12Cc1ccc4c(c1C2=O)CCC4)CCC3` (stereo not drawn), the EC50 was above 200 µM and the IC50 is above 200 µM.
Take `CC1=CP(=O)(c2ccccc2)C=C(C)C1=C(Cl)Cl` (stereo not drawn): the outcome was inactive.
On to `CN(C)/N=C(/c1nc2ccc([N+](=O)[O-])cc2[nH]c1=O)C(O)c1ccco1` (stereo not drawn), for which the EC50 was above 263 µM and the IC50 came out at 191 µM.
As for `COC1CC2C3/C(=N/Nc4ccc([N+](=O)[O-])cc4[N+](=O)[O-])CCC2(C)C3C1` (stereo not drawn), the result was inactive.
Take `Cc1nc(-[n+]2nc(-c3ccncc3)nn2-c2ccccc2)sc1C`: the EC50 was above 200 µM and the IC50 is 17 µM.
The like results for `S=C1CSc2c(cnc3ccccc23)N1` were, in that order, above 200 µM and 105 µM.
The like results for `COc1cc([C@@H]2CC3(C)OC(=O)C2CC3C)cc(OC)c1OC` (stereo partly drawn) were, in that order, above 562 µM and above 562 µM.
Taken in the same sequence, the figures for `Nc1ncnc2oc(C3OC(COC(=O)c4ccccc4)C(OC(=O)c4ccccc4)C3OC(=O)c3ccccc3)nc12` (stereo not drawn) were above 200 µM and 148 µM.
On to `O=C1C2=C(C(=O)C3=C1C1CCC3C1)C1CCC2C1`, for which the EC50 was above 200 µM and the IC50 was 5.89 µM.
Take `C1=Nc2ccc(cc2)N=Cc2ccccc2OCc2cccc(n2)COc2ccccc21`: the EC50 is above 200 µM and the IC50 was above 200 µM.
Regarding `O=C1C2c3[nH]c4ccccc4c3C3CCCCCC3C2C(=O)N1c1ccccc1` (stereo not drawn), the outcome was inactive.
Take `Cn1c(=O)c(C(=O)NC(=O)NCCCCCOC(=O)CCCCCCCCCCC(=O)OCCCCCNC(=O)NC(=O)c2cn(Cc3ccccc3)c(=O)n(C)c2=O)cn(Cc2ccccc2)c1=O`: the EC50 is above 7.41 µM and the IC50 is above 7.41 µM.
`CC(C)(C)C(=O)/C=C/c1ccc(-c2ccccc2)cc1`: the EC50 is above 19.5 µM and the IC50 was above 19.5 µM.
For `O=C(NCCc1c[nH]c2ccccc12)C(F)(F)C(F)(F)F`, the EC50 was above 200 µM and the IC50 worked out at 38 µM.
For `CCN(CC)C1=Nc2ccccc2N(c2ccccc2)C(=S)C1`, the EC50 is above 200 µM and the IC50 stood at 85.1 µM.
